Source: the NIST ThermoML archive (doi:10.1016/j.fluid.2013.06.017)
± gives the expanded uncertainty stated by the source.

Details: Liquid, Closed cell (Static) method

Structure (SMILES)	vapor or sublimation pressure (258.15 K)	vapor or sublimation pressure (268.15 K)	vapor or sublimation pressure (278.15 K)	vapor or sublimation pressure (288.15 K)
F/C=C/C(F)(F)F [trans-1,3,3,3-tetrafluoropropene]	120.2 ± 1 kPa	179.3 ± 1 kPa	259.2 ± 1.1 kPa	364.2 ± 1.1 kPa
CC(F)F [1,1-difluoroethane]	148.6 ± 1 kPa	219.4 ± 1.1 kPa	314.1 ± 1.1 kPa	437.8 ± 1.2 kPa
